Reference: US11981669B2, “1,7-naphthyridine derivative and preparation method and use therefor” (CSPC ZHONGQI PHARMACEUTICAL TECHNOLOGY (SHIJIAZHUANG) CO., …, priority 2018, dated 2024)
pIC50: −log10 of the molar value. Marks after values point to notes of the source that are not given here.

Legend:
[1] = biological target: CYP2C9 (Homo sapiens (Human), UniProt P11712); assay: CYP enzyme inhibition assay; format: in vitro ADME
From the text: (§1) The compounds of the present disclosure were subjected to the CYP450 enzyme inhibition assay.

[2] = biological target: CYP2C19 (Homo sapiens (Human), UniProt P33261); assay: CYP enzyme inhibition assay; format: in vitro ADME
From the text: as §1

[3] = biological target: CYP2D6 (Homo sapiens (Human), UniProt P10635); assay: CYP enzyme inhibition assay; format: in vitro ADME
From the text: as §1

[4] = biological target: CYP3A4-M (Homo sapiens (Human), UniProt P08684); assay: CYP enzyme inhibition assay; format: in vitro ADME
From the text: as §1

[5] = tested on: rats with residual kidney; assay: SD rat residual kidney experiment; format: in vivo, SD rats; parameters: Hematocrit / Alanine aminotransferase / Glutamic-oxalacetic transaminase: unit not given here; conditions: for Red blood cells / Alanine aminotransferase / Glutamic-oxalacetic transaminase / Hematocrit / Hemoglobin / Hepcidin: three times each week, 15 times, x ± sd; for Red blood cells: blood 24 hours after last administration; for Effect on glutamic-oxalacetic transaminase / Effect on liver glutamic-pyruvic aminotransferase: compared with the blank control group
Protocol: 79 SD rats were subjected to residual kidney surgery after anesthesia (left kidney was resected, one third of the right kidney was left, and the resected kidney part was weighed to confirm the surgical error). After 4 weeks, 45 surviving rats were subjected to blood cell dection and then assigned according to the HCT value 37 rats in good condition were selected and divided into the following groups: Link-118 (5, 10 mg/kg), Link-121 (5, 10 mg/kg), and FG-4592 (10 mg/kg), 6 rats in each treatment group, and 7 in the model group. 4 rats were assigned to the blank control group. The rats were administered three times each week (administered on Monday, Wednesday, and Friday), for 15 times, and blood was taken 24 hours after the last administration (tested by blood routine, blood biochemistry, hepcidin kit).

[6] = biological target: PHD3 (Homo sapiens (Human), UniProt Q9H6Z9); assay: PHD enzyme assay (Eu-VBC TR-fluorescence); format: biochemical
Protocol: (§2) VHL/elongin B/elongin C were constructed, expressed and purified, and VHL was labeled. PHD1, PHD2 and PHD3 were constructed, expressed and purified. VBC protein was labeled with DELFIA Eu-Labeling Kit. A NeutrAvidin 96-well plate was blocked after the addition of 200 μL Blocker Casein to each well, followed by incubation for 30 min. Each well was washed 3 times by adding 200 μL of washing buffer each time. A 200 nM HIF-1a 556-574 solution was prepared with washing buffer, and 100 μL of the solution was added to each well, followed by incubation for 60 min. Each well was washed 3 times by adding 200 μL of washing buffer each time. A 1 mM Biotin solution was prepared with Blocker Casein, and 100 μL of the solution was added to each well, followed by incubation for 30 min. Each well was washed 3 times by adding 200 μL of washing buffer each time. A 20× compound solution was prepared with PHD reaction buffer, with the final concentration of DMSO being 1%. PHD solutions were prepared with PHD reaction buffer, and the concentrations of PHD1, 2, and 3 solutions were 10 ng/μL, 5 ng/μL, and 15 ng/μL, respectively. 95 μL of the PHD solution was added to each compound well, followed by the addition of 5 μL of the compound solution, 95 μL of the PHD solution was added to each full active well, followed by the addition of 5 μL of the PHD reaction buffer; and 100 μL of the PHD reaction buffer was added to each blank well. After mixing homogeneously, the wells were incubated for 60 min. Each well was washed 3 times by adding 200 μL of washing buffer each time A 1 ng/μL Eu-VBC solution was prepared with Eu-VBC binding buffer, and 100 μL of the solution was added to each well, followed by incubation for 60 min. Each well was washed 6 times by adding 200 μL DELFIA Wash Concentrate each time. 100 μL DELFIA Enhancement Solution was added to each well. A microplate reader was used to read TR-Fluorescence at Ex340 and Em615. The flurescence of the sample wells was recorded as FLUsample, the flurescence of the full active wells was recorded as FLU100%, and the flurescence of the blank well was recorded as FLU0%.

[7] = biological target: PHD1 (Homo sapiens (Human), UniProt Q96KS0); assay: PHD enzyme assay (Eu-VBC TR-fluorescence); format: biochemical
Protocol: as §2

[8] = tested on: erythropoietin; assay: Expression of erythropoietin in vivo (plasma EPO ELISA after single oral dose); conditions: once; for EPO OD value: plasma 6 hours after administration; for Promotion of expression of erythropoietin in vivo: at 10 mg/kg;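 on all read-outs here: male C57 mice given compound by mouth, five animals per treatment group, with EPO in plasma measured by ELISA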
Protocol: (2) 30 c57 mice, male, were divided into 6 groups, 5 mice in each treatment group. […] 6 hours after the administration, blood was taken, and plasma was collected for EPO detection with an ELISA kit (R&D Co.).

[9] = biological target: CYP1A2 (Homo sapiens (Human), UniProt P05177); format: in vitro ADME
From the text: as §1

[10] = tested on: HIF-1α; assay: Expression of HIF-1α protein in Hep3B cells (western blot, grayscale analysis); format: cell-based, Human; conditions: for fold induction at 30 µM: Homo sapiens, 2 h, compound at 30 μM, 10 μM and 3 μM, read-out: HIF-1α level of the compound of the present disclosure/HIF-1α level of blank control
Protocol: A test compound was dissolved in dimethyl sulfoxide into a 100 mM stock solution, and then was diluted with 0.5% FBS-containing DMEM medium into 30 μM, 10 μM and 3 μM for later use. Human liver cancer cells Hep3B were seeded in a six-well plate at a density of 2.25*10^5 cells/well, 2 mL per well. After cultivation overnight, the cells were treated with compounds at different concentrations for 2 h. The proteins were extracted for western blot and further grayscale analysis.

[11] = tested on: reticulocytes; assay: Effect on reticulocytes of normal mice; format: in vivo, Balb/c mice; parameters: Reticulocytes (RETIC), average: unit not given here; conditions: 10 mg/kg p.o., once; 72 h after administration
Protocol: 72 Balb/c mice, male, were divided into 12 groups, 6 mice in each treatment group. In the positive drug control groups: the mice in the FG-4592 treatment groups were orally administered once, at two doses of 10 mg/kg and 50 mg/kg, and the mice in the rhEPO treatment group was intraperitoneaily injected once, at a dose of 100 IU/kg. The compounds of the present disclosure were all orally administered once at a dose of 10 mg/kg. 72 h after the administration, blood was collected from the orbit of all animals, and subjected to EDTA-K2 anticoagulation. Then reticulocytes (RETIC) were counted with an automatic blood cell analyzer.

PHD3, sequence (Q9H6Z9 whole entry): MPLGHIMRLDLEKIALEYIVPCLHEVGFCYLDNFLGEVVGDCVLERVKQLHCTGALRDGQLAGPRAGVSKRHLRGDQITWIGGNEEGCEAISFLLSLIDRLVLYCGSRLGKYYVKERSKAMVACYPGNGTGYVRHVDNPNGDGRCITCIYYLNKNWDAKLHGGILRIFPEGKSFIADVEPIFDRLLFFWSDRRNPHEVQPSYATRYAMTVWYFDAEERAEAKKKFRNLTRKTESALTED
PHD1, sequence (Q96KS0 whole entry): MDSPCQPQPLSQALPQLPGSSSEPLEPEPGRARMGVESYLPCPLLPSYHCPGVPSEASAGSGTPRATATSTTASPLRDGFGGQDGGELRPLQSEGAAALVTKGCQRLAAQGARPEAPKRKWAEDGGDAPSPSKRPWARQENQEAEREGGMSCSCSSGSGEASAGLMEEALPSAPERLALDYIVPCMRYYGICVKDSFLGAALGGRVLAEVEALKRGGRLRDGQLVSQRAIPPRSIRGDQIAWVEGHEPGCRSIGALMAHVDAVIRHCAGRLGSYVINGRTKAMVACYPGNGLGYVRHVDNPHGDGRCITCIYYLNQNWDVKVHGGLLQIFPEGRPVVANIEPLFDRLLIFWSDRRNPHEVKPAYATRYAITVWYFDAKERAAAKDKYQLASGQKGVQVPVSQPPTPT
CYP2C19, sequence (P33261 whole entry): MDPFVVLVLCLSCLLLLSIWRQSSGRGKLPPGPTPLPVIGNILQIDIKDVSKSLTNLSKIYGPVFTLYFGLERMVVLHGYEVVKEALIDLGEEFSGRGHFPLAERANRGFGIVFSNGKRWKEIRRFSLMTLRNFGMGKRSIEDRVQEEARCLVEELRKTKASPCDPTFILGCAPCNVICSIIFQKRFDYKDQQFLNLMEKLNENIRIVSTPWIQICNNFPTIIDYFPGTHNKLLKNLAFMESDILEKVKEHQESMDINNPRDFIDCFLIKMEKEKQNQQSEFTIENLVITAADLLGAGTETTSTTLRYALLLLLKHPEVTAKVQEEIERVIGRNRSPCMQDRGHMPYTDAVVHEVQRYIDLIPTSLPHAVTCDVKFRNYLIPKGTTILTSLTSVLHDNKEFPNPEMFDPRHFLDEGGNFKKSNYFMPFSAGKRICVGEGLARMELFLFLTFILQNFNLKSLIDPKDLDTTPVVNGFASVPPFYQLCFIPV
CYP3A4-M, sequence (P08684 whole entry): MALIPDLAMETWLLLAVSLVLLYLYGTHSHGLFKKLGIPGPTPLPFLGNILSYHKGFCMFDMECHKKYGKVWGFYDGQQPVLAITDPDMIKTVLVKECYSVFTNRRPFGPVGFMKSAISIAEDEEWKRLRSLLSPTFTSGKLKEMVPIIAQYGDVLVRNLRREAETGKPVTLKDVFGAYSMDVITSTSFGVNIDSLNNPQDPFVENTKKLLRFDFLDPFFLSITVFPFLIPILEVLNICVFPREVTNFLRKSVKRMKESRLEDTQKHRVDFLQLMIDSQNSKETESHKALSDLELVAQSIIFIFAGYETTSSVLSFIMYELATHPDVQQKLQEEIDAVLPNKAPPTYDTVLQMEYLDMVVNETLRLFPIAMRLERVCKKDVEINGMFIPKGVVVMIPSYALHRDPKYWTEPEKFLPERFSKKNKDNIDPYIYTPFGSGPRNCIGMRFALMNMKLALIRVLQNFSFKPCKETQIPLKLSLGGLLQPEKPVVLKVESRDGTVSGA
CYP2D6, sequence (P10635 whole entry): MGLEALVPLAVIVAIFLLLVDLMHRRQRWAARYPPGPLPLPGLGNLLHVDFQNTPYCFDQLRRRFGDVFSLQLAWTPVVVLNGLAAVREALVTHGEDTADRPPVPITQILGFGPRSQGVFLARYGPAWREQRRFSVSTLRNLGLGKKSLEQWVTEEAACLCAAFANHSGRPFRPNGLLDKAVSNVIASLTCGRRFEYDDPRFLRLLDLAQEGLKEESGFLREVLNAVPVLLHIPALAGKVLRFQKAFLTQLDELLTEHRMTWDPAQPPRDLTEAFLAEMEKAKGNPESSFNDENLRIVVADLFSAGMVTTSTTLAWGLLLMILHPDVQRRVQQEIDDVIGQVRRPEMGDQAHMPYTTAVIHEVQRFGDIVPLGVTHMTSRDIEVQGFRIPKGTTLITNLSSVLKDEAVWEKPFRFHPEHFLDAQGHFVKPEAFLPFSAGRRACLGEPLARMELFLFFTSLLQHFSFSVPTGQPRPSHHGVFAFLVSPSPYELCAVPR
CYP2C9, sequence (P11712 whole entry): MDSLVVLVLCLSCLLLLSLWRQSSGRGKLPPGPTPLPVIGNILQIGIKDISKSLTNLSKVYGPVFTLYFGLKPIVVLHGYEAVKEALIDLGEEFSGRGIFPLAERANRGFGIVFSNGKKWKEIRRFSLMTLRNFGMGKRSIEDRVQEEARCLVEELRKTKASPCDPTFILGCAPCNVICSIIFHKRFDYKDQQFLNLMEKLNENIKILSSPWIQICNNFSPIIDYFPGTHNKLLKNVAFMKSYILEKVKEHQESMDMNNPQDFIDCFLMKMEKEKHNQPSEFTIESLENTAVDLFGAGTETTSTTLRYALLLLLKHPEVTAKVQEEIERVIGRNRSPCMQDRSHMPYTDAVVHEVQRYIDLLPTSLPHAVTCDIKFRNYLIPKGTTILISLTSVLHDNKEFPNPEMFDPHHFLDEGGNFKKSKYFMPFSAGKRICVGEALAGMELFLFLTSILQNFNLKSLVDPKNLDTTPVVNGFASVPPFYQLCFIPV
CYP1A2, sequence (P05177 whole entry): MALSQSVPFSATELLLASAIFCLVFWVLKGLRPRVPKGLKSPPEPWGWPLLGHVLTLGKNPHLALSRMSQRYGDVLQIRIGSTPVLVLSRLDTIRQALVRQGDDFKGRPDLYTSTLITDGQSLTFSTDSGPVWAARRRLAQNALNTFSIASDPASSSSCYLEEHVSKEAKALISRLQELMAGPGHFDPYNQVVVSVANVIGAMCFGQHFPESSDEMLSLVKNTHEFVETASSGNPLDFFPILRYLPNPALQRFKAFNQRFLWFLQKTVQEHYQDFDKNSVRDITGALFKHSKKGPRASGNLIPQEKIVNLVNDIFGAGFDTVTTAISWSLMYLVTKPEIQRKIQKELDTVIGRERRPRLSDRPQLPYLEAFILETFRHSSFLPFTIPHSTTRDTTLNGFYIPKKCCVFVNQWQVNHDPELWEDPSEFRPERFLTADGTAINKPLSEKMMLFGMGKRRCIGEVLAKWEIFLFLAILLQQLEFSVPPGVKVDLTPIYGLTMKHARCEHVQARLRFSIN

Row | SMILES | pIC50 [1] | pIC50 [2] | pIC50 [3] | pIC50 [4] | Red blood cells ([5]; 5 mg/kg) | Alanine aminotransferase ([5]; 5 mg/kg) | Glutamic-oxalacetic transaminase ([5]; 5 mg/kg) | Hematocrit ([5]; 5 mg/kg) | Hemoglobin ([5]; 5 mg/kg) [g/L] | Hepcidin ([5]; 5 mg/kg) [ng/mL] | Red blood cells ([5]; 10 mg/kg) | Alanine aminotransferase ([5]; 10 mg/kg) | Glutamic-oxalacetic transaminase ([5]; 10 mg/kg) | Hematocrit ([5]; 10 mg/kg) | Hemoglobin ([5]; 10 mg/kg) [g/L] | Hepcidin ([5]; 10 mg/kg) [ng/mL] | Effect on glutamic-oxalacetic transaminase [5] | Effect on liver glutamic-pyruvic aminotransferase [5] | Effect on HCT in rats with residual kidney ([5]; compared with the model group) | Effect on HGB in rats with residual kidney ([5]; compared with the model group) | further results
1 | O=C(O)CNC(=O)c1nc(Br)c2nc(Oc3ccccc3)ccc2c1O [Link-121, 2-(2-phenoxy-5-hydroxy-8-bromo-1,7-naphthyridine-6-formamido) Acetic Acid] | < 4.30 | < 4.30 | < 4.30 | < 4.30 | 7.68 ± 0.46 10^12/L | 56.40 ± 25.89 | 130.80 ± 3126 | 43 ± 2.26 | 150.60 ± 8.62 | 2.8289 ± 0.7597 | 8.12 ± 1.11 10^12/L | 47.5 ± 7.23 | 12125 ± 16.11 | 46.86 ± 629 | 163.40 ± 24.44 | 2.5494 ± 1.3532 | no significant effect | no significant effect | significantly increase | significantly increase | Effect on hepcidin in rats with residual kidney ([5]; compared with the model group): reduced; Effect on PHD3 compared with compounds of Comparative Examples 1-3 [6]: better effect; IC50 [6]: 95.6 nM; Effect on PHD1 compared with compounds of Comparative Examples 1-3 [7]: better effect; IC50 [7]: 40.3 nM; EPO OD value ([8]; 10 mg/kg): C (C represents 2<EPO OD value<3); EPO OD value ([8]; 50 mg/kg): D (D represents EPO OD value>3); Promotion of expression of erythropoietin in vivo [8]: significantly promote the expression of erythropoietin; pIC50 [9]: < 4.30; HIF-1α protein expression compared with blank control [10]: higher than that of the blank control; fold induction at 30 µM [10]: 4.5 to 8.5; Reticulocytes (RETIC), average [11]: 7.28
2 | O=C(O)CNC(=O)c1nc(Cl)c2nc(Oc3ccccc3)ccc2c1O [Link-118, 2-(2-phenoxy-5-hydroxy-8-chloro-1,7-naphthyridine-6-formamido) Acetic Acid] | < 4.30 | < 4.30 | < 4.30 | < 4.30 | 8.05 ± 0.46** 10^12/L | 37.83 ± 1.60 | 116.50 ± 14.43 | 45.88 ± 2.87 | 164 ± 10.99 | 2.5808 ± 1.0573 | 9.61 ± 1.06** 10^12/L | 35.50 ± 6.28 | 113.67 ± 2123 | 57.2 ± 6.67 | 203.83 ± 22.83 | 2.4472 ± 0.513 | no significant effect | no significant effect | significantly increase | significantly increase | Effect on RBC in rats with residual kidney ([5]; compared with the model group): significantly increase; Effect on hepcidin in rats with residual kidney ([5]; compared with the model group): significantly inhibit; Efficacy compared with FG-4592 at the same dose ([5]; rats with residual kidney): better than that of FG-4592; Effect on PHD3 compared with compounds of Comparative Examples 1-3 [6]: better effect; IC50 [6]: 72.8 nM; Effect on PHD1 compared with compounds of Comparative Examples 1-3 [7]: better effect; IC50 [7]: 46.9 nM; EPO OD value ([8]; 10 mg/kg): D (D represents EPO OD value>3); EPO OD value ([8]; 50 mg/kg): D (D represents EPO OD value>3); Promotion of expression of erythropoietin in vivo [8]: significantly promote the expression of erythropoietin; pIC50 [9]: < 4.30; HIF-1α protein expression compared with blank control [10]: higher than that of the blank control; Promoting effect on HIF-1α expression compared with FG4592 [10]: stronger than that of the positive control drug FG4592; fold induction at 30 µM [10]: > 10; Reticulocytes (RETIC), average [11]: 8.62
